Test results taken from the supplement of paper PMC13380429.

Columns and labels:
Details in all cases: 72 h
[1] = tested on: Vero E6; experiment: relative viability EC50 (midpoint between 100% and the lowest measured viability); higher = less toxic
[2] = tested on: Calu-3; experiment: as above
[3] = tested on: U2OS; experiment: as above
[4] = tested on: HepG2; experiment: as above
[5] = tested on: Caco-2; experiment: as above
[6] = tested on: Vero E6; experiment: drug sensitivity score (DSS) for viability; higher = more toxic; extreme values may be limits of the assay
[7] = tested on: Calu-3; experiment: as above
[8] = tested on: U2OS; experiment: as above
[9] = tested on: HepG2; experiment: as above
[10] = tested on: Caco-2; experiment: as above
[11] = tested on: Vero E6; experiment: cell viability relative to DMSO; higher = less toxic
[12] = tested on: Calu-3; experiment: as above
[13] = tested on: U2OS; experiment: as above
[14] = tested on: HepG2; experiment: as above
[15] = tested on: Caco-2; experiment: as above

Row | SMILES | relative viability EC50 [1] [nM] | relative viability EC50 [2] [nM] | relative viability EC50 [3] [nM] | relative viability EC50 [4] [nM] | relative viability EC50 [5] [nM] | drug sensitivity score [6] | drug sensitivity score [7] | drug sensitivity score [8] | drug sensitivity score [9] | drug sensitivity score [10] | cell viability ([11]; 1 nM) [%] | cell viability ([11]; 10 nM) [%] | cell viability ([11]; 100 nM) [%] | cell viability ([11]; 1000 nM) [%] | cell viability ([11]; 10000 nM) [%] | cell viability ([12]; 1 nM) [%] | cell viability ([12]; 10 nM) [%] | cell viability ([12]; 100 nM) [%] | cell viability ([12]; 1000 nM) [%] | cell viability ([12]; 10000 nM) [%] | cell viability ([13]; 1 nM) [%] | cell viability ([13]; 10 nM) [%] | cell viability ([13]; 100 nM) [%] | cell viability ([13]; 1000 nM) [%] | cell viability ([13]; 10000 nM) [%] | cell viability ([14]; 1 nM) [%] | cell viability ([14]; 10 nM) [%] | cell viability ([14]; 100 nM) [%] | cell viability ([14]; 1000 nM) [%] | cell viability ([14]; 10000 nM) [%] | cell viability ([15]; 1 nM) [%] | cell viability ([15]; 10 nM) [%] | cell viability ([15]; 100 nM) [%] | cell viability ([15]; 1000 nM) [%] | cell viability ([15]; 10000 nM) [%]
1 | C=CC(=O)Nc1cc(Nc2nccc(-c3c[nH]c4ccccc34)n2)c(OC)cc1N(C)CCN(C)C [AZ5104] | 397 | 9.3 | 1130 | 1190 | 563 | 15.6 | 27.9 | 9.8 | 9.3 | 10.3 | 88.8 | 93.8 | 61.6 | 49.7 | 0.2 | 82.8 | 56.2 | 32.5 | 33.3 | 17.4 | 104 | 95.2 | 95.4 | 59.6 | 8.6 | 98.2 | 94.2 | 84.2 | 64 | 9.2 | 89.1 | 87.6 | 81.7 | 62.1 | 24.3
2 | COC1CCN(C(=O)c2cc(Cc3n[nH]c(=O)c4ccccc34)ccc2F)CC1 [AZD2461] | > 10000 | > 10000 | > 10000 | > 10000 | > 10000 | 0 | 0 | 0 | 3.4 | 0 | 99.3 | 97 | 99.7 | 97.9 | 99.9 | 86.7 | 100 | 79.8 | 69.5 | 92.5 | 94.4 | 96 | 99.1 | 94.4 | 100 | 99.5 | 86 | 85.5 | 93.8 | 87.2 | 90.3 | 97.5 | 95.5 | 100 | 93.6
3 | COc1ccc(-c2ccc3ncc4c(c3c2)n(-c2ccc(N3CCNCC3)c(C(F)(F)F)c2)c(=O)n4C)cn1 [BGT226] | 140 | 32.1 | 29.3 | 107 | 39.7 | 21 | 28.4 | 29.8 | 22.8 | 26.8 | 98 | 93.9 | 52.2 | 22.2 | -0.2 | 110 | 58.3 | 29.6 | 23.2 | 0 | 101 | 74.2 | 22.8 | 0.1 | -0.2 | 110 | 91.5 | 50.8 | 11.5 | -0.3 | 88.6 | 69 | 35.8 | 19.3 | 0.6
4 | CCNC(C)CN1CCc2c(c(=O)oc3ccccc23)C1 (stereo not given) [CI-923] | > 10000 | > 10000 | > 10000 | > 10000 | > 10000 | 0 | 0 | 0 | 0 | 0 | 99.7 | 103 | 104 | 95.9 | 94.5 | 99.5 | 109 | 100 | 111 | 99.1 | 99 | 99.3 | 95.9 | 101 | 95.8 | 99.6 | 93.1 | 105 | 97.5 | 109 | 103 | 102 | 103 | 97.9 | 93.6
5 | COc1ccc(-c2nc(N3CCOCC3)c3sc(CN(C)c4ncc(C(=O)NO)cn4)cc3n2)cn1 [CUDC-907] | 16.6 | 15.2 | 6 | 6.9 | 17.7 | 34 | 32 | 38.7 | 37.9 | 33 | 103 | 78.2 | 0 | -0.3 | -0.4 | 85.2 | 65.4 | 14.1 | 5.1 | 3.7 | 90.9 | 34.4 | 0.6 | 0.3 | 0.4 | 90.2 | 39.6 | 0.6 | -0.1 | -0.1 | 81.5 | 73.2 | 3.5 | 0.6 | 1
6 | CC(C)N(CCc1c[nH]c2ccccc12)C(C)C [DIPT] | > 10000 | > 10000 | > 10000 | > 10000 | > 10000 | 0 | 0 | 0 | 0 | 0 | 103 | 98.9 | 101 | 95.1 | 97.4 | 85.7 | 95.4 | 97.5 | 96 | 103 | 101 | 99.7 | 98.2 | 102 | 96.6 | 93.2 | 86.3 | 99.5 | 86 | 95.7 | 95 | 103 | 107 | 101 | 102
7 | CS(=O)(=O)c1ccc(-c2cnc(NCc3ccco3)n3cnnc23)cc1 [EED226] | > 10000 | > 10000 | > 10000 | > 10000 | > 10000 | 0 | 0 | 0 | 0.1 | 0 | 107 | 100 | 103 | 105 | 98 | 102 | 102 | 94.4 | 111 | 111 | 98.3 | 97.1 | 98.5 | 97.4 | 98 | 99.8 | 92.8 | 94.6 | 102 | 87 | 95.7 | 82.8 | 104 | 88.1 | 103
